{"source": "ChEMBL document CHEMBL1201862", "about": "“PubChem BioAssay data set” (2004)", "key": {"[1]": {"assay": "Late-stage results from the probe development effort to identify antagonists of arginine vasopressin receptor 1a (AVPR1a): fluorescence-based cell-based dose response AVPR1a inhibition assay.", "assay_type": "functional"}, "[2]": {"biological_target": "Vasopressin V2 receptor (Homo sapiens, UniProt P30518)", "sequence (P30518 whole entry)": "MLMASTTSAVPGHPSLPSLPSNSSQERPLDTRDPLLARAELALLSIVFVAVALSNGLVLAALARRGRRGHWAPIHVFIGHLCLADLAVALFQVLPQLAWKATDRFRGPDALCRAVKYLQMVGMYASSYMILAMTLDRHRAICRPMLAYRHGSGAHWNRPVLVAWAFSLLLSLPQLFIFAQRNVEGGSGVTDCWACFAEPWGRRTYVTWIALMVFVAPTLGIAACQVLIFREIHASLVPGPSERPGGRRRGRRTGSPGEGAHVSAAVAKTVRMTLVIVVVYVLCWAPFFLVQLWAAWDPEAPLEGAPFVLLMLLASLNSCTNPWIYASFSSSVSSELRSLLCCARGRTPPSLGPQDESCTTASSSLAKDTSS", "assay": "Late-stage results from the probe development effort to identify antagonists of arginine vasopressin receptor 1a (AVPR1a): fluorescence-based cell-based dose response AVPR2 inhibition counterscreen assay.", "assay_type": "functional"}, "[3]": {"assay": "Late-stage results from the probe development effort to identify antagonists of arginine vasopressin receptor 1a (AVPR1a): fluorescence-based cell-based dose response OXTR inhibition counterscreen assay.", "assay_type": "functional"}, "[4]": {"biological_target": "Vasopressin V1b receptor (Homo sapiens, UniProt P47901)", "sequence (P47901 whole entry)": "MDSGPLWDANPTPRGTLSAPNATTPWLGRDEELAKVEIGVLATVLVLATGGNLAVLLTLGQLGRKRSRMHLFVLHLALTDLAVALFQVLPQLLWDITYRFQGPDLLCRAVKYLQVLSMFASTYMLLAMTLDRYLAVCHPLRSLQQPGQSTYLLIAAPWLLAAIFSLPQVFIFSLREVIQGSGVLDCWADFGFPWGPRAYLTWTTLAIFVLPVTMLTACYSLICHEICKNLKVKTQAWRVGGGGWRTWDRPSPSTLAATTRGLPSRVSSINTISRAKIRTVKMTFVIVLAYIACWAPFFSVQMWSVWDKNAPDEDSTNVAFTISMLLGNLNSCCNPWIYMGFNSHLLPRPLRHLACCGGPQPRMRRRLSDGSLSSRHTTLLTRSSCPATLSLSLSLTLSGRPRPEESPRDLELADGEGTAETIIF", "assay": "Late-stage results from the probe development effort to identify antagonists of arginine vasopressin receptor 1a (AVPR1a): fluorescence-based cell-based dose response AVPR1b inhibition counterscreen assay.", "assay_type": "functional"}, "[5]": {"biological_target": "Metabotropic glutamate receptor 5 (Rattus norvegicus, UniProt P31424)", "sequence (P31424 whole entry)": "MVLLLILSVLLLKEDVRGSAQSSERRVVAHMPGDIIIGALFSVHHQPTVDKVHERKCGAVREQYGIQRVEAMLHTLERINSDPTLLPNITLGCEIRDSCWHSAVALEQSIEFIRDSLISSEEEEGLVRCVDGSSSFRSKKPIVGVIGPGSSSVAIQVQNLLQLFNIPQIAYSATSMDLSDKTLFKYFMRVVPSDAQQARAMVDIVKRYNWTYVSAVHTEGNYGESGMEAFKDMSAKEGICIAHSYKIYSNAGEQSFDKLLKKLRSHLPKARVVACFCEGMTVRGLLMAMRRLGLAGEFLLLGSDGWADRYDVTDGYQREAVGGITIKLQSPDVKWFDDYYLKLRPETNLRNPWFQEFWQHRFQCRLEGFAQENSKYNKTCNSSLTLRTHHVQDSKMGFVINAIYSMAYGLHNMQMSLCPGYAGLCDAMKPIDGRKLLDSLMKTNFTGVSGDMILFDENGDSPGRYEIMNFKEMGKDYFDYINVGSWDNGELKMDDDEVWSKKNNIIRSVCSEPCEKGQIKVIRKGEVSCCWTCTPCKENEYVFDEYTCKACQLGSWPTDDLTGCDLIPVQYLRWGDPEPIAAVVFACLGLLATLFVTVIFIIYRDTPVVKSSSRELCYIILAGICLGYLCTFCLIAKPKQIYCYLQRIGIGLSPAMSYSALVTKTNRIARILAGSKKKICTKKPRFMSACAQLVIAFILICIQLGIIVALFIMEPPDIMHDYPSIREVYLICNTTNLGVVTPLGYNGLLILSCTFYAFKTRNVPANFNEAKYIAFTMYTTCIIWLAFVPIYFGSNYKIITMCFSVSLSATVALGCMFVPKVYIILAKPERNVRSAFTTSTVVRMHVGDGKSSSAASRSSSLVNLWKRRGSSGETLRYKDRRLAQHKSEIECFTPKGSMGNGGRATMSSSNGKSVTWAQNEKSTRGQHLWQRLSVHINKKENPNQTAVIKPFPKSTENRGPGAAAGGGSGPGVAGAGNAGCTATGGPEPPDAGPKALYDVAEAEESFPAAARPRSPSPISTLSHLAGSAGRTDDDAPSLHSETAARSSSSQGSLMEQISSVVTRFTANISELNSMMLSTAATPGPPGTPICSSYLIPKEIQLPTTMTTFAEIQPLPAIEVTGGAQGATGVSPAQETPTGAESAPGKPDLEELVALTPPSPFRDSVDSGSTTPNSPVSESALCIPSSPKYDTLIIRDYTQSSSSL", "assay": "Identification of a glycine sulfonamide based non-MPEP site positive allosteric potentiator (PAM) of mGlu5 (calcium_assay).", "assay_type": "functional"}, "[6]": {"assay": "A549 cell cytotoxicity, dose response, cytotoxicity control, plate reader, cherry-pick, antagonist series (AID 743412)", "assay_type": "functional, cell-based"}, "[7]": {"assay": "blockers of bursicon-stimulated LGR2 cAMP reporter – cell-based, HEK293, CRE-luciferase reporter, cherry pick, set 2, dose response (AID 743343);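 note: transfected cells were stimulated with diluted bursicon conditioned medium after compound addition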", "assay_type": "functional"}, "[8]": {"assay": "viability loss in HepG2 hepatoma cells – cell-based, ATP luminescence, cherry-pick, activator set 2, cytotoxicity control, dose response (AID 1053143)", "assay_type": "functional"}, "[9]": {"assay": "toxicity toward HepG2 liver cells – cell-based, plate reader, cherry-pick, antagonist series, cytotoxicity control, dose response (AID 743416)", "assay_type": "functional"}, "[10]": {"assay": "Luminescence-based cell-based high throughput dose response assay to identify activators of the DAF-12 from the parasite S. stercoralis (ssDAF-12).", "assay_type": "functional"}, "[11]": {"assay": "blockade of melanocortin 4 receptor signaling – cell-based, plate reader, cherry pick, counter-screen for LGR2 antagonist project, dose response (AID 743444);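 note: transfected HEK 293 cells stimulated with alpha-MSH peptide; potency of inhibitors of the alpha-MSH evoked signal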", "assay_type": "functional"}, "[12]": {"biological_target": "T1, Protein skinhead-1 (Caenorhabditis elegans, UniProt P34707)", "T1 sequence (P34707 whole entry)": "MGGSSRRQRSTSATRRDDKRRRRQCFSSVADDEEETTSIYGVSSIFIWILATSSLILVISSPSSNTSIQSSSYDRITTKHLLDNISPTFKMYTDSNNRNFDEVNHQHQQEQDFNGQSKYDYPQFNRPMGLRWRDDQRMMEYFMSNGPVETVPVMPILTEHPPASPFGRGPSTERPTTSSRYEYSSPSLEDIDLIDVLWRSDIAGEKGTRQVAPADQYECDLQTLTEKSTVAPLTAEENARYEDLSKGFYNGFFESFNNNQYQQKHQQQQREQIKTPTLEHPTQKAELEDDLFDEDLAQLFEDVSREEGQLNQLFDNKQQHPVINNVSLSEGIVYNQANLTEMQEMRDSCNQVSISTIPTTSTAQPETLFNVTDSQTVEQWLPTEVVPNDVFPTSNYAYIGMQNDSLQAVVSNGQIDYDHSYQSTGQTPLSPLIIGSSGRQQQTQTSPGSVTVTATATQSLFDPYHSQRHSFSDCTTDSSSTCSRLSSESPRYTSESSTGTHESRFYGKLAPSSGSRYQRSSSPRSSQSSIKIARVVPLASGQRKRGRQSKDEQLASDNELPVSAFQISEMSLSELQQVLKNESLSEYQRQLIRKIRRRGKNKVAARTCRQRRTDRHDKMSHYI", "assay_type": "functional"}, "[13]": {"assay": "toxicity toward HEK293 cells – cell-based, dry powder samples, cytotoxicity control, dose response (AID 720567)", "assay_type": "functional"}, "[14]": {"assay": "HEK-293T viability loss after treatment – luminescence, T-cell screen hits, cytotoxicity control for TCR NF-kB inhibitor project, dose response (AID 489026);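 note: cells exposed to compound about 14 hours before the viability readout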", "assay_type": "functional, cell-based"}, "[15]": {"assay": "Late stage assay provider results from the probe development effort to identify inhibitors of the Plasmodium falciparum M18 Aspartyl Aminopeptidase (M18AAP): radiolabel-based cell-based dose response assay to identify compounds that inhibit P. falciparum growth in RBCs, Set 2..", "assay_type": "functional"}, "[16]": {"assay": "T. cruzi growth inhibition in host cells, dose response, cell-based, plate reader, dry powder, set 2 (AID 652275)", "assay_type": "functional"}, "[17]": {"assay": "anti-trypanosomal activity in BESM host cells – imaging, CA-I/72 strain, bovine embryo skeletal muscle, dry powder, dose response (AID 651885)", "assay_type": "functional, cell-based"}, "[18]": {"assay": "Inhibition of T. cruzi Tulahuen strain amastigotes in L-6 muscle cells Measured in Cell-Based and Microorganism Combination System Using Plate Reader - 2138-03_Inhibitor_Dose_CherryPick_Activity.", "assay_type": "functional", "conditions": "Rattus norvegicus, L6"}, "[19]": {"assay": "L6 myocyte viability loss – cell-based, plate reader, cherry-pick, cytotoxicity control, dose response (AID 651896)", "assay_type": "functional"}, "[20]": {"assay": "African trypanosome bloodstream form growth inhibition – STIB900 strain, plate reader, cherry pick, dose response (AID 651893)", "assay_type": "functional, cell-based, Trypanosoma brucei rhodesiense", "conditions": "Trypanosoma brucei"}, "[21]": {"assay": "antileishmanial activity on axenic amastigotes – plate reader, cherry pick, dose response (AID 651891)", "assay_type": "functional, cell-based", "conditions": "Leishmania donovani"}, "[22]": {"assay": "Inhibition of Plasmodium falciparum NF54 Measured in Cell-Based System Using Plate Reader - 2138-11_Inhibitor_Dose_CherryPick_Activity.", "assay_type": "functional"}, "[23]": {"assay": "Trypanosoma cruzi replication inhibitors in host cells – cell-based, plate reader, dry powder samples, dose response (AID 651845)", "assay_type": "functional"}, "[24]": {"assay": "intracellular Trypanosoma cruzi inhibitors in host cells – cell-based, plate reader, cherry-pick samples, set 3, dose response (AID 651818);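 note: compounds incubated with infected cells for about four days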", "assay_type": "functional"}, "[25]": {"biological_target": "Caspase-6 (Homo sapiens, UniProt P55212)", "sequence (P55212 24-179 limits assumed)": "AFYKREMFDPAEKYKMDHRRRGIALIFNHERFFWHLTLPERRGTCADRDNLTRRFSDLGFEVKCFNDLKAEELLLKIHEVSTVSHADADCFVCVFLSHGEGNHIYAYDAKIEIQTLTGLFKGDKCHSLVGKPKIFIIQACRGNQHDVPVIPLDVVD", "sequence (P55212 194-293 limits assumed)": "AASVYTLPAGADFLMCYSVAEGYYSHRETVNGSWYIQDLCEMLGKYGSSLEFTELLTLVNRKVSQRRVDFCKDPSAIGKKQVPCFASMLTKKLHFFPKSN", "assay": "inhibition of CASP6 peptide cleavage – biochemical, VEID-R110 fluorescence, cherry-pick, dose response (AID 720632)"}}, "note": "Calls of active or inactive are those of the source.", "data": [{"smiles": "Cc1ccc(N2CCC(C(=O)N(CC3CC3)c3ccc(Cl)cc3)CC2)nc1", "values": [{"measurement": "IC50", "setting": "[1]", "value": "0.0201 µM (active)"}, {"measurement": "IC50", "setting": "[2]", "value": "12.3 µM (inactive)"}, {"measurement": "IC50", "setting": "[3]", "value": "12.4 µM (inactive)"}, {"measurement": "IC50", "setting": "[4]", "value": "20.8 µM (inactive)"}]}, {"smiles": "O=C(Nc1cccc(Cl)c1)[C@H]1CCc2ccccc2N1S(=O)(=O)c1cccs1", "values": [{"measurement": "EC50", "setting": "[5]", "value": "> 30 µM (inactive)"}]}, {"smiles": "Cc1cc(-c2nc3cc(F)ccc3s2)ccc1N", "values": [{"measurement": "AC50", "setting": "[6]", "value": "21.4 µM (active)"}, {"measurement": "AC50", "setting": "[7]", "value": "3.96 µM (active)"}, {"measurement": "AC50", "setting": "[8]", "value": "0.55 µM (active)"}, {"measurement": "AC50", "setting": "[9]", "value": "0.0824 µM (active)"}, {"measurement": "IC50", "setting": "[10]", "value": "> 67.6 µM (inactive)"}, {"measurement": "AC50", "setting": "[11]", "value": "3.8 µM (active)"}, {"measurement": "IC50", "setting": "[12]", "value": "19.1 µM (active)"}]}, {"smiles": "CCOC(=O)COc1cccc2c(=O)n(CC(=O)NCc3ccccc3)ccc12", "values": [{"measurement": "AC50", "setting": "[13]", "value": "> 30 µM (inactive)"}, {"measurement": "IC50", "setting": "[14]", "value": "> 80 µM (inactive)"}]}, {"smiles": "CCN(CC)Cc1cc(Nc2ccnc3cc(Cl)ccc23)ccc1O", "values": [{"measurement": "IC50", "setting": "[15]", "value": "0.19 µM (active)"}]}, {"smiles": "C[C@H]1CN([C@@H](C)CO)C(=O)c2cccc(NC(=O)c3ccncc3)c2O[C@@H]1CN(C)Cc1ccccc1", "values": [{"measurement": "AC50", "setting": "[16]", "value": "0.0123 µM (active)"}, {"measurement": "IC50", "setting": "[17]", "value": "0.00942 µM (active)"}, {"measurement": "IC50", "setting": "[18]", "value": "4.83 µM (inactive)"}, {"measurement": "IC50", "setting": "[19]", "value": "> 100 µM (inactive)"}, {"measurement": "IC50", "setting": "[20]", "value": "35.1 µM (inactive)"}, {"measurement": "IC50", "setting": "[21]", "value": "84.4 µM (inactive)"}, {"measurement": "IC50", "setting": "[22]", "value": "4.83 µM (inactive)"}, {"measurement": "AC50", "setting": "[23]", "value": "0.0123 µM (active)"}, {"measurement": "AC50", "setting": "[24]", "value": "0.08 µM (active)"}]}, {"smiles": "O=C(OC1CCOC1=O)c1ccc(Cl)c(S(=O)(=O)N2CCOCC2)c1", "note": "(stereo not given)", "values": [{"measurement": "AC50", "setting": "[25]", "value": "13.5 µM (active)"}]}]}
